Source: US20180243421A1, “IMMUNOSTIMULATING AGENT” (AJINOMOTO CO., INC., priority 2015, published 2018)

How the values were obtained:
[1] = system: anti-OVA-specific IgG1 subclass antibody; test: Adjuvant activity: anti-OVA-specific IgG1 subclass antibody in serum after secondary immunization (Examples 1, 5, 7, 8; ELISA absorbance); format: in vivo, BALB/c mice
How it was run: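 Serum was taken two weeks after the secondary immunization and assayed by ELISA on plates coated with 5 μg/ml OVA. Detection used biotinylated anti-mouse IgG1, then anti-biotin-HRP and TMB. The reaction was stopped with 2N H2SO4 and read as absorbance at 450 nm.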

[2] = system: anti-OVA-specific IgE antibody; settings: mouse, in vivo
How it was run: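 Female BALB/c mice (8-week-old, N=6) were immunized dorsal-subcutaneously with OVA (5 or 10 μg) alone or with adjuvants (Alum, Addavax™, CpG 5 μg, MPL 5 μg, or test lipid 0.256 μmol in 5% αCD saline), boosted one week later. Serum anti-OVA IgE was measured by capture ELISA with HRP-labeled OVA, read at OD 450 nm against a standard curve.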

IFN-γ = test: Th1 response: IFN-γ production from lymph node cells of immunized mice restimulated with OVA; format: in vivo, BALB/c mice; settings: Example 10; s.c. OVA 10 μg + 0.256 μmol in 5% αCD saline (Addavax 1:1); groin lymph node ten days later; 0.1-100 μg OVA, 40 hr, ELISA
Procedure: Ten days later, groin lymph node was collected from all mice of the above-mentioned (1) to (4), lymph node cells were isolated and cultured in 10% FBS-containing RPMI1640 medium. Thereto was added 0.1 μg, 1 μg, 10 μg, 100 μg of OVA, respectively, 40 hr later, cell supernatant was recovered, and IFN-γ and IL-4 in the supernatant were measured by ELISA.

SMILES | allergy inducing activity as compared to Addavax [2] | anti-OVA-specific IgE antibody production as compared to the OVA single administration group [2] | further results
CCCCCCCCCCCCCCCC(=O)NC(=N)NCCCCN [SZ62, N-hexadecanoylagmatine] | – | – | anti-OVA-specific IgG1 subclass antibody production as compared to the OVA single administration group ([1]; Example 1, dorsal-subcutaneous, OVA 10 μg, SZ62 0.256 μmol in 5% αCD saline, Alum 2.56 μmol, serum two weeks from secondary immunization): significantly increased; adjuvant activity (IgG1) compared with Alum ([1]; Example 1, same test as E1): equivalent to that of Alum; adjuvant activity (IgG1) compared with Alum ([1]; Example 5): equivalent to or not less than that of Alum; anti-OVA-specific IgG1 subclass antibody production as compared to the OVA single administration group ([1]; Example 5, same manner as Example 1): significantly increased; adjuvant activity (IgG1) compared with Alum ([1]; Example 8): equivalent to or not less than that of Alum; anti-OVA-specific IgG1 subclass antibody production as compared to the OVA single administration group ([1]; Example 8, same manner as Example 7): significantly increased; allergy inducing activity as compared to aluminum hydroxide gel adjuvant [2]: lower allergy inducing activity; allergy inducing activity as compared to aluminum hydroxide gel adjuvant and Addavax [2]: lower allergy inducing activity; IFN-γ production from lymph node cells (IFN-γ): increased in an OVA volume dependent manner
CCCCCCCCCCCCCCCCCCC(CCCCCCCCCCCCCCCCCC)C(=O)N[C@@H](CC(C)C)C(=O)OC [SZ86, N-(2-octadecyleicosanoyl)-L-leucine methyl ester] | low allergy inducing activity | a significant increase in the anti-OVA-specific IgE antibody production was not observed | –
CCCCCCCCCCCCCCCC(=O)N[C@@H](CC(C)C)C(=O)N(CC)CC [SZ92, N^2-hexadecanoyl-N^1,N^1-diethyl-L-leucinamide] | low allergy inducing activity | a significant increase in the anti-OVA-specific IgE antibody production was not observed | –
CCCCCCCCCCCCCCCC(=O)N[C@@H](CC(C)C)C(=O)OCCCCCC [SZ97, N-hexadecanoyl-L-leucine hexyl ester] | low allergy inducing activity | a significant increase in the anti-OVA-specific IgE antibody production was not observed | –

The next lines start with results.

allergy inducing activity as compared to Addavax [2] | SMILES | anti-OVA-specific IgE antibody production as compared to the OVA single administration group [2] | further results
low allergy inducing activity | CCCCCCCCCCCCCCCC(=O)N[C@@H](CCCNC(=N)N)C(=O)OCCCCCC.Cl [SZ99, N^2-hexadecanoyl-L-arginine hexyl ester hydrochloride salt] | a significant increase in the anti-OVA-specific IgE antibody production was not observed | –
low allergy inducing activity | CCCCCCCCCCCCCCCCCCCCCC(=O)N[C@@H](CCC(=O)O)C(=O)N(CC)CC [SZ106, N^2-docosanoyl-N^1,N^1-diethyl-L-glutamic acid 1-amide] | a significant increase in the anti-OVA-specific IgE antibody production was not observed | –
low allergy inducing activity | CCCCCCCCCCCCCCCCCCCCCC(=O)NC(=N)NCCCCN.Cl [SZ108, N-docosanoylagmatine hydrochloride salt] | a significant increase in the anti-OVA-specific IgE antibody production was not observed | –
